Experiments:
all tested cell lines = experiment: Caspase-Glo 3/7 activity assay, all tested cell lines; assay type: cell-based; conditions: IC50 concentration, 24 h; vs vehicle
Description: According to instructions, Caspase-Glo® 3/7 assay (Promega GmbH, Mannheim, Germany) was used for monitoring caspase activity. Briefly, the same volume Caspase-Glo reagent as culture medium was added and incubated 1 h at room temperature. Luminescence was read with a Victor3 Wallac 1420 Multilabel counter (PerkinElmer, Rodgau, Germany). Background absorbance (medium only) was subtracted and the data given as percent of vehicle controls.

A2C12 = experiment: Cell cycle analysis by flow cytometry; assay type: cell-based, mouse; conditions: IC50 concentration, 96 h
Summary of the method: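 Flow cytometric cell-cycle profiling follows trypsin harvest and PBS washing, with staining via a three-reagent DNA kit (first incubation 10 min at room temperature; final one at 4°C, light-protected) and storage on ice until measurement.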

SMILES: CSc1nc(NCCc2ccc(Cl)cc2)c2cnn(CC(Cl)c3ccccc3)c2n1 (stereo not shown) [Si57]
- Change of caspase-3/7 activity in all cell lines (all tested cell lines): declined
- Cells in G1 phase (A2C12): 44.1%
- Cells in G2 phase (A2C12): 12.2%
- Cells in S phase (A2C12): 43.7%

From paper PMC2994747, “Molecular Characterization of c-Abl/c-Src Kinase Inhibitors Targeted against Murine Tumour Progenitor Cells that Express Stem Cell Markers” (PLoS ONE, 2010)
